Paper PMC9814544 (Communications Chemistry, 2020)
In brackets after ≈: the same amount, converted by molar mass. Several values for one entry are separate records, joined by “and”; a condition that tells them apart may be missing. Equal entries are not always repeated. Where two headings read alike, the source gives them in different places.

Assays:
human LOX-1 receptor = biological target: T1, human LOX-1 receptor (Homo sapiens, UniProt P78380); test: LOX-1 cellular oxLDL uptake assay (AF594-oxLDL, CHO-Trex-hLOX1); type: cell-based
T1 construct: the cellular HTS screen was done using full-length LOX-1 and human oxLDL; expressed in transfected cells; host or cells: CHO-K1 T-REx (CHO-Trex-hLOX1 clone), vector pT-Rex-EXP-30-hLOX
Description: To identify small molecule inhibitors of LOX-1 mediated oxLDL uptake we developed a cellular high throughput screening (HTS) assay. Small molecule compounds were screened for their ability to block the uptake of AlexaFluor594 (AF594)-labeled human oxLDL into a CHO-K1 cell line with inducible expression of the human LOX-1 receptor. This readout was visualized and images were quantified by fluorescence microscopy (Fig. 1a). As positive controls, cells without induction of LOX-1 as well as a blocking anti-LOX-1 antibody[29] was used (Fig. 1b). More than one million different compounds were screened. Lead-like compounds (molecular weight above 270 Da) were tested at a concentration of 5 µg/ml, whereas a fragment subset (molecular weight below 270 Da) was tested at a tenfold higher concentration to ensure detection of more weakly active but ligand-efficient fragment-like compounds. Employing a hit criterion of lower than 50% of control, a hit rate of 2.8% was observed (Supplementary Fig. 1). These hits were further confirmed by performing two independent assay runs with fresh compound samples, resulting in a confirmation rate of 80% and a confirmed hit rate of 2.2% (Supplementary Fig. 2). To filter out unspecific or false-positive hits, a counter screen was developed and applied for testing the primary hits[30]–[32]. The assay format was identical to the primary assay besides employing a CHO cell line with inducible expression of human HDL scavenger receptor class B type I (SR-BI), an alternative scavenger receptor with low sequence and structural homology to human LOX-1 (Supplementary Fig. 1). Human SR-B1 is a cell surface glycoprotein most highly expressed in liver and steroidogenic tissues and plays a key role in mediating selective HDL cholesterol (HDL-C) uptake in the liver. Its regulation of HDL-C metabolism is believed to be relevant for cardiovascular health and the receptor was therefore chosen as a counter target. Using this single assay, we eliminated compounds that blocked both receptors presumably via an unspecific, non-target related mechanism (Supplementary Fig. 3).
A recombinant CHO-K1 cell line was generated to stably express human LOX-1 under control of a Tetracycline inducible promoter: using Gateway® Cloning (Invitrogen), the hLOX-1 cDNA was cloned into pT-Rex-DEST-30 thus generating pT-Rex-EXP-30-hLOX. The CHO-K1 T-REx host cell line was then transfected with the expression vector pT-Rex-EXP-30-hLOX. Stably transfected cells were selected by Geneticin resistance. Single cell clones expressing human LOX-1 upon induction with Doxycycline were isolated and the best clone selected by qRT-PCR and FACS analysis (CHO-Trex-hLOX1 cell clone). Cells expressing human SR-BI were prepared and used for the assay in a similar fashion (CHO-Trex-hSR-B1 cell line). […]

[1] = biological target: T2, human HDL scavenger receptor class B type I (SR-BI) (Homo sapiens, UniProt Q8WTV0); test: SR-B1 cellular oxLDL uptake counter screen (CHO-Trex-hSR-B1); type: cell-based
T2 construct: expressed in transfected cells; host or cells: CHO T-REx (CHO-Trex-hSR-B1 cell line)
T2 sequence (Q8WTV0 1-509 isoform Q8WTV0-2): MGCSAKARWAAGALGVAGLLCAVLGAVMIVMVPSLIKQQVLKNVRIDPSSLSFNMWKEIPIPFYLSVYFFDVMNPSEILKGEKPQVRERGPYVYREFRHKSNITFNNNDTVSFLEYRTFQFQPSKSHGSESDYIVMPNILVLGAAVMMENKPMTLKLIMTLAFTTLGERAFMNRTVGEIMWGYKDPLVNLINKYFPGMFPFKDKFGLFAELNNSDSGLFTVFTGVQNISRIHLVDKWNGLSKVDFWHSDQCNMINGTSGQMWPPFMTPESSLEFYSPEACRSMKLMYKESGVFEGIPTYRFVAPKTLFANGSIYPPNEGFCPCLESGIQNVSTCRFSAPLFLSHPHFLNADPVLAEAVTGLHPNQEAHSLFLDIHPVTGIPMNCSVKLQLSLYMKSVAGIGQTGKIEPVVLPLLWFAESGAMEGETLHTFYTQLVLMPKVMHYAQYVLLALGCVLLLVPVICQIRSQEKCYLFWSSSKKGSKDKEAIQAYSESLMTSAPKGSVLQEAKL
Description: To identify small molecule inhibitors of LOX-1 mediated oxLDL uptake we developed a cellular high throughput screening (HTS) assay. Small molecule compounds were screened for their ability to block the uptake of AlexaFluor594 (AF594)-labeled human oxLDL into a CHO-K1 cell line with inducible expression of the human LOX-1 receptor. This readout was visualized and images were quantified by fluorescence microscopy (Fig. 1a). As positive controls, cells without induction of LOX-1 as well as a blocking anti-LOX-1 antibody[29] was used (Fig. 1b). More than one million different compounds were screened. Lead-like compounds (molecular weight above 270 Da) were tested at a concentration of 5 µg/ml, whereas a fragment subset (molecular weight below 270 Da) was tested at a tenfold higher concentration to ensure detection of more weakly active but ligand-efficient fragment-like compounds. Employing a hit criterion of lower than 50% of control, a hit rate of 2.8% was observed (Supplementary Fig. 1). These hits were further confirmed by performing two independent assay runs with fresh compound samples, resulting in a confirmation rate of 80% and a confirmed hit rate of 2.2% (Supplementary Fig. 2). To filter out unspecific or false-positive hits, a counter screen was developed and applied for testing the primary hits[30]–[32]. […]

[2] = High throughput solubility; type: physicochemical; details: for solubility at 24 h: aqueous buffer, kinetic from dmso stock, n = 1
Description: The aqueous solubility of the test compound is determined by comparing the amount dissolved in buffer to the amount in an acetonitrile/water (1/1) solution. Starting from a 10 mM DMSO stock solution aliquots are diluted with acetonitrile/water (1/1) or buffer resp. After 24h of shaking, the solutions are filtrated and analyzed by LC-UV. The amount dissolved in buffer is compared to the amount in the acetonitrile solution. Solubility will usually be measured from 0.001 to 0.125 mg/ml at a DMSO concentration of 2.5%. The solubility at the different pH values for BI-0115 were measured with n = 1.

- IC50 (human LOX-1 receptor; eight independent measurements 1-8, Supplementary Table 1, read-out: IC50 on LOX-1, individual measurements): 7.55 µM and 7.15 µM and 3.34 µM and 2.01 µM and 5.85 µM and 6.95 µM and 5.11 µM and 4.97 µM
- extent of inhibition of oxLDL uptake in the cellular context (human LOX-1 receptor; in words, reply to reviewers): full inhibition
- IC50 (human LOX-1 receptor; mean, BI-0115 n = 8, BI-1580 n = 2, inhibition of AF594-oxLDL internalization, read-out: LOX-1 IC50): 5.37 µM and 5.4 µM
- IC50 (human LOX-1 receptor; single curve of Fig. 1c, n = 2 per concentration, R^2 = 0.98, read-out: IC50, representative concentration response curve): 7.2 µM
- activity in the SR-B1 assay ([1]; in words): no activity
- solubility at 24 h ([2]; pH 4, aqueous buffer, pH4, read-out: Solubility pH4): 1 µg/mL (≈ 3.48 µM)
- solubility at 24 h ([2]; pH 7, aqueous buffer, pH7, read-out: Solubility pH7): 1 µg/mL (≈ 3.48 µM)
- compound solubility ([2]; in words): low
Structure (SMILES): CCCN1C(=O)c2ccc(Cl)cc2Nc2ncccc21 [BI-0115]
- IC50 ([1]; eight independent measurements 1-8, Supplementary Table 2, read-out: IC50 on SR-B1, individual measurements): 88.8 µM and > 54.2 µM and > 100 µM (4×) and > 172 µM (2×)
